The structures appear in SMILES notation. Counter-ions that a name gives are not always drawn.

Broadly, the melting point is the temperature of the solid-liquid transition.

Molecule `COC(=O)CCN(C)[C@H]1CC[C@H](Nc2ncc3ncnc(Nc4ccc(F)c(Cl)c4)c3n2)CC1` [Example 2(8), 4-[(3-chloro-4-fluorophenyl)amino]-6-[(trans-4-{N-[2-(methoxycarbonyl)ethyl]-N-methylamino}cyclohex-1-yl)amino]pyrimido[5,4-d]pyrimidine] displayed a melting point of 126 to 128 °C. The value for `COC(=O)C1CCCN1CC1CCN(c2ncc3ncnc(Nc4ccc(F)c(Cl)c4)c3n2)CC1` (stereo not shown) [Example 2(21), 4-[(3-chloro-4-fluorophenyl)amino]-6-(4-{[2-(methoxycarbonyl)pyrrolidin 1-yl]methyl}piperidin-1-yl)pyrimido[5,4-d]pyrimidine] was 151 to 154 °C; that for `CC(C)OC(=O)CN1CCC(Nc2ncc3ncnc(Nc4ccc(F)c(Cl)c4)c3n2)CC1` [Example 2(3), 4-[(3-chloro-4-fluorophenyl)amino]-6-({1-[(isopropyloxycarbonyl)methyl]piperidin-4-yl}amino)pyrimido[5,4-d]pyrimidine] was 175 to 177 °C; that for `CC1(NCCC(=O)O)CCN(c2ncc3ncnc(Nc4ccc(F)c(Cl)c4)c3n2)CC1` [Example 1(30), 4-[(3-chloro-4-fluorophenyl)amino]-6-{4-methyl-4-[(2-carboxyethyl)amino]piperidin-1-yl}pyrimido[5,4-d]pyrimidine] was 157 to 160 °C.

The molecule `CCOC(=O)CC(CC(=O)OCC)N1CCC(Nc2ncc3ncnc(Nc4cccc(Br)c4)c3n2)CC1` [Example 6(5), 4-[(3-bromophenyl)amino]-6-[(1-{1-[(ethoxycarbonyl)methyl]-2-(ethoxycarbonyl)ethyl}piperidin-4-yl)amino]pyrimido-[5,4-d]pyrimidine] yielded a melting point of 132 °C. The value for `COC(=O)CC(C(=O)OC)N1CCC(Nc2ncc3ncnc(Nc4cccc(Br)c4)c3n2)CC1` (stereo not shown) (as salt: maleate) [Example 6(4), 4-[(3-bromophenyl)amino]-6-({1-[1,2-bis(methoxycarbonyl)ethyl]piperidin-4-yl}amino)pyrimido[5,4-d]pyrimidine] was 193 °C; that for `O=C(O)CCN1CCN(c2ncc3ncnc(Nc4ccc(F)c(Cl)c4)c3n2)CC1` [Example 1(7), 4-[(3-chloro-4-fluorophenyl)amino]-6-[4-(2-carboxyethyl)piperazin-1-yl]pyrimido[5,4-d]pyrimidine] was 111 to 145 °C; that for `O=C(O)CNCC1CCN(c2ncc3ncnc(Nc4ccc(F)c(Cl)c4)c3n2)CC1` [Example 1(17), 4-[(3-chloro-4-fluorophenyl)amino]-6-(4-{[(carboxymethyl)amino]methyl}piperidin-1-yl)pyrimido[5,4-d]pyrimidine] was 226 to 235 °C.

In the case of `CCOC(=O)CN1CCC(Nc2ncc3ncnc(Nc4ccc(F)c(Cl)c4)c3n2)CC1` [Example 2, 4-[(3-chloro-4-fluorophenyl)amino]-6-({1-[(ethoxycarbonyl)methyl]piperidin-4-yl}amino)pyrimido[5,4-d]pyrimidine], the melting point fell in the range of 136 to 138 °C. As for `O=C(CN1CCC(Nc2ncc3ncnc(Nc4ccc(F)c(Cl)c4)c3n2)CC1)OC1CCCCC1` [Example 2(4), 4-[(3-chloro-4-fluorophenyl)amino]-6-({1-[(cyclohexyloxycarbonyl)methyl]piperidin-4-yl}amino)pyrimido[5,4-d]pyrimidine], the figure is 184 to 186 °C.

As for `NC1(C(=O)O)CCN(c2ncc3ncnc(Nc4ccc(F)c(Cl)c4)c3n2)CC1` [Example 1(14), 4-[(3-chloro-4-fluorophenyl)amino]-6-(4-amino-4-carboxypiperidin-1-yl)pyrimido[5,4-d]pyrimidine], the melting point was 277 to 282 °C.

`O=C(O)CCCN1CCC(Nc2ncc3ncnc(Nc4ccc(F)c(Cl)c4)c3n2)CC1` [Example 1(2), 4-[(3-chloro-4-fluorophenyl)amino]-6-{[1-(3-carboxypropyl)piperidin-4-yl]amino}pyrimido[5,4-d]pyrimidine] yielded a melting point of 145 to 165 °C. For `COC(=O)CCCN1CCC(Nc2ncc3ncnc(Nc4ccc(F)c(Cl)c4)c3n2)CC1` [Example 2(6), 4-[(3-chloro-4-fluorophenyl)amino]-6-({1-[3-(methoxycarbonyl)propyl]piperidin-4-yl}amino)pyrimido[5,4-d]pyrimidine], the melting point is 135 to 137 °C.

For the molecule `CCOC(=O)CN1CCN(CC2CCN(c3ncc4ncnc(Nc5ccc(F)c(Cl)c5)c4n3)CC2)CC1` [Example 2(22), 4-[(3-chloro-4-fluorophenyl)amino]-6-[4-({4-[(ethoxycarbonyl)methyl]piperazin-1-yl}methyl)piperidin-1-yl]pyrimido[5,4-d]pyrimidine], the melting point is 145 to 149 °C. For the molecule `COC(=O)CCC1CCN(C2CCN(c3ncc4ncnc(Nc5ccc(F)c(Cl)c5)c4n3)C2)CC1` (stereo not shown) [Example 2(16), 4-[(3-chloro-4-fluorophenyl)amino]-6-(3-{4-[2-(methoxycarbonyl)ethyl]piperidin-1-yl}-pyrrolidin-1-yl)pyrimido[5,4-d]pyrimidine], the melting point lay in the range of 166 to 168 °C.

With `O=C(O)CCN1CCC(Nc2ncc3ncnc(Nc4ccc(F)c(Cl)c4)c3n2)CC1` [Example 1(1), 4-[(3-chloro-4-fluorophenyl)amino]-6-{[1-(2-carboxyethyl)piperidin-4-yl]amino}pyrimido[5,4-d]pyrimidine], the melting point lay within 217 to 225 °C. The value for `O=C(O)CCN(CCC(=O)O)CC1CCN(c2ncc3ncnc(Nc4ccc(F)c(Cl)c4)c3n2)CC1` [Example 1(19), 4-[(3-chloro-4-fluorophenyl)amino]-6-(4-{[N,N-bis(2-carboxyethyl)amino]methyl}piperidin-1-yl)pyrimido[5,4-d]pyrimidine] was 160 to 169 °C. As for `O=C(O)CCNCC1CCN(c2ncc3ncnc(Nc4ccc(F)c(Cl)c4)c3n2)CC1` [Example 1(16), 4-[(3-chloro-4-fluorophenyl)amino]-6-(4-{[(2-carboxyethyl)amino]methyl}piperidin1-yl)pyrimido[5,4-d]pyrimidine], the figure is 209 to 214 °C; as for `COC(=O)CCN1CCN(c2ncc3ncnc(Nc4ccc(F)c(Cl)c4)c3n2)CC1` [Example 2(11), 4-[(3-chloro-4-fluorophenyl)amino]-6-[4-[2-(methoxycarbonyl)ethyl]piperazin-1-yl]pyrimido[5,4-d]pyrimidine], 140 to 142 °C.

As to `COC(=O)CCNC1(C)CCN(c2ncc3ncnc(Nc4ccc(F)c(Cl)c4)c3n2)CC1` [Example 6(3), 4-[(3-chloro-4-fluorophenyl)amino]-6-{4-methyl-4-[2-(methoxycarbonyl)ethyl]aminopiperidin-1-yl}pyrimido[5,4-d]pyrimidine], the melting point was in the range of 134 to 135 °C. `CN(CCCC(=O)O)[C@H]1CC[C@H](Nc2ncc3ncnc(Nc4ccc(F)c(Cl)c4)c3n2)CC1` [Example 1(5), 4-[(3-chloro-4-fluorophenyl)amino]-6-({trans-4-[N-(3-carboxypropyl)-N-methylamino]cyclohex-1-yl}amino)pyrimido[5,4-d]pyrimidine] registered a melting point of 217 to 221 °C. As for `COC(=O)CCN1CCC(Nc2ncc3ncnc(Nc4ccc(F)c(Cl)c4)c3n2)CC1` [Example 2(5), 4-[(3-chloro-4-fluorophenyl)amino]-6-({1-[2-(methoxycarbonyl)ethyl]piperidin-4-yl}amino)pyrimido[5,4-d]pyrimidine], the figure is 136 to 137 °C. The value for `O=C(O)CN[C@H]1CC[C@H](Nc2ncc3ncnc(Nc4ccc(F)c(Cl)c4)c3n2)CC1` [Example 1(27), 4-[(3-chloro-4-fluorophenyl)amino]-6-({trans-4-[(carboxymethyl)amino]cyclohex-1-yl}amino)pyrimido [5,4-d]pyrimidine] was 201 to 205 °C (dec.); that for `COC(=O)CCCN(C)[C@H]1CC[C@H](Nc2ncc3ncnc(Nc4ccc(F)c(Cl)c4)c3n2)CC1` [Example 2(9), 4-[(3-chloro-4-fluorophenyl)amino]-6-[(trans-4-{N-[3-(methoxycarbonyl)propyl]-N-methylamino}cyclohex-1-yl)amino]pyrimido[5,4-d]pyrimidine] was 99 to 102 °C.

On to `CC1(NCC(=O)O)CCN(c2ncc3ncnc(Nc4ccc(F)c(Cl)c4)c3n2)CC1` [Example 1(32), 4-[(3-chloro-4-fluorophenyl)amino]-6-{4-methyl-4-[(carboxymethyl)amino]piperidin-1-yl}pyrimido[5,4-d]pyrimidine], for which the melting point is 160 °C (dec.).

With `O=C(O)CN(CC(=O)O)[C@H]1CC[C@H](Nc2ncc3ncnc(Nc4ccc(F)c(Cl)c4)c3n2)CC1` [Example 1(18), 4-[(3-chloro-4-fluorophenyl)amino]-6-({trans-4-[N,N-bis(carboxymethyl)amino]cyclohex-1-yl}amino)pyrimido[5,4-d]pyrimidine], the melting point was 245 °C (dec.). Consider `O=C(O)CN1CCN(CCNc2ncc3ncnc(Nc4ccc(F)c(Cl)c4)c3n2)CC1` [Example 1(13), 4-[(3-chloro-4-fluorophenyl)amino]-6-{2-[4-(carboxymethyl)piperazin-1-yl]ethylamino}pyrimido[5,4-d]pyrimidine], for which the melting point was 240 to 242 °C (dec.). As for `CCCOC(=O)CN1CCC(Nc2ncc3ncnc(Nc4ccc(F)c(Cl)c4)c3n2)CC1` [Example 2(2), 4-[(3-chloro-4-fluorophenyl)amino]-6-({1-[(propyloxycarbonyl)methyl]piperidin-4-yl}amino)pyrimido[5,4-d]pyrimidine], the figure is 135 to 137 °C.

The values above are taken from patent publication US20020082420A1, “Bicyclic heterocycles, pharmaceutical compositions containing them, their use, and processes for preparing them” (priority 2000, published 2002).
